Read-outs that look alike come from different tables or passages of the source.
How the values were obtained:
[1] = system: BxPC-3 human pancreatic adenocarcinoma; assay: BxPC-3 pancreatic xenograft model; type: in vivo, mouse; conditions: cisplatin 4 mg/kg
Method: The effect of Compound 8 on TGI was evaluated in the BxPC-3 human pancreatic adenocarcinoma nude mouse (female Crl:NU(NCr)-Foxn1^nu) xenograft model.

[2] = system: NCI-H520 human NSCLC; assay: NCI-H520 lung xenograft model; type: in vivo, mouse
Method: The effect of Compound 8 also was evaluated in the NCI-H520 human NSCLC nude mouse (female CrTac:NCr-Foxn1^nu) xenograft model. […] All treatments were statistically significant compared to vehicle (p<0.0001).

[3] = system: A2780 human ovarian cancer; assay: A2780 ovarian xenograft model; type: in vivo, mouse
Method: The effect of Compound 8 on tumor growth inhibition (TGI) was evaluated in the A2780 human ovarian cancer nude mouse (female Crl:NU(NCr)-Foxn1^nu) xenograft model.

[4] = system: patients; conditions: cited from earlier work
[5] = system: rats; conditions: 50 rats treated for 3 weeks, 3×1 mg/kg body weight/week; cited from earlier work
[6] = system: rat; assay: Single IV administration in the rat, kidney findings; type: in vivo; conditions: single dose of cisplatin 7 mg/kg
[7] = system: Calu-6 human NSCLC; assay: Calu-6 lung xenograft model; type: in vivo, mouse
Method: The effect of Compound 8 was evaluated in the Calu-6 human NSCLC nude mouse (female Crl:NU(NCr)-Foxn1^nu) xenograft model.

[8] = system: MIA Paca-2 human pancreatic adenocarcinoma; assay: MIA Paca-2 pancreatic xenograft model; type: in vivo, mouse

Compound: N.N.[Cl][Pt][Cl] [Cisplatin]
- Treatment-related side effects [1]: No treatment-related side effects
- MTV (mean tumor volume) ([2]; Cisplatin 3 mg/kg (10 uM/kg) IV twice weekly, 5 doses, Day 31): 823 mm^3
- Mean maximal BW loss ([2]; cisplatin 3 mg/kg, on Day 4): 0.43%
- MTV (mean tumor volume) ([3]; Cisplatin 4 mg/kg (13.3 uM/kg) IV every 3 days, 6 doses): 1052 mm^3
- TGI (tumor growth inhibition) versus vehicle ([3]; Cisplatin 4 mg/kg IV every 3 days, 6 doses): 55%
- Mean maximal BW loss ([3]; cisplatin 4 mg/kg, Day 5): 2.3%
- Response rate in most advanced cancers ([4]; first-line setting): ~50%
- Hypersensitivity reactions, patients treated ([4]; human, in vivo): up to 20%
- Response rate in most advanced cancers ([4]; second- or third-line setting): 15%
- Deaths secondary to malignancy [5]: 13
- Kidney findings [6]: high incidence of moderate acute tubular necrosis of the kidney
- MTV (mean tumor volume) ([7]; Cisplatin 3 mg/kg (10 uM/kg) IV twice weekly for 2 weeks, Day 33): 462 mm^3
- TGI (tumor growth inhibition) versus vehicle ([7]; Cisplatin 3 mg/kg IV twice weekly for 2 weeks, Day 33): 74%
- Median TTE (time to endpoint) ([7]; Cisplatin 3 mg/kg IV twice weekly for 2 weeks, Day 54): 52.5 days
- BW loss ([7]; cisplatin 3 mg/kg): no BW loss
- T-C ([7]; cisplatin 3 mg/kg): 16.7 days
- Treatment-related side effects ([7]; cisplatin 3 mg/kg, one animal): severe petechiae on Day 4

Compound: O=C1[O][Pt]2([NH][C@@H]3CCCC[C@H]3[NH]2)[O]C1=O [Oxaliplatin]
- MTV (mean tumor volume) ([8]; Oxaliplatin 7 mg/kg (17.9 uM/kg) IV q3, 7 doses, Day 18): 1251 mm^3
- TGI (tumor growth inhibition) versus vehicle ([8]; Oxaliplatin 7 mg/kg IV q3, 7 doses, Day 18): 61%
- Treatment-related effects ([8]; oxaliplatin 7 mg/kg, all animals, Day 18): pale and dehydrated and having petechiae
- Mean maximal BW loss ([8]; oxaliplatin 7 mg/kg, printed 'Day 5.3'): 8.1%
